The structures appear in SMILES notation. Where two headings read alike, the source gives them in different places. Where only a bound is given, the exact number is not on record here.

Data set [1] relates to MCF-7 cells. It counts as cell-based, human. The conditions noted are these: for IC50: 72 h. Here is the method:
(§1) The cytotoxic effects of the prepared compounds on MCF-7 and HepG2 cells were investigated with the help of standard MTT assay. […] Plates were then further incubated for 72 h. Afterwards, 20 μL of MTT (5 mg/mL in PBS) were pipetted to the wells and incubated for another 4 h. The medium was then aspirated and 100 μL DMSO were added/well. Absorbance was read using a microplate reader at 570 nm. IC50 values, used to compare compound toxicity with control cells, were obtained from linear regression of the dose–response curve using Origin® 6.1 software (OriginLab Corporation, Northampton, MA, USA). […] Data were represented as mean ± SD.

The test system of data set [2] is HepG2 cells. It counts as cell-based, human. Here is the method:
as §1

For the compound `CC[C@H](C)[C@@H]1NC(=O)[C@H](Cc2ccccc2)NC(=O)c2cccc(n2)C(=O)N[C@@H](Cc2ccccc2)C(=O)N[C@@H]([C@@H](C)CC)C(=O)N[C@@H]([C@@H](C)CC)C(=O)N[C@H](C(=O)O)CCCCNC(=O)[C@H]([C@@H](C)CC)NC1=O` [5c, Cyclo-(N^α-dipicolinoyl)-bis-[(L-Phe-L-ILe-L-Ile)-L-Lyscarboxylic acid]], the “cytotoxic activity against MCF-7 cells (in words)” value in data set [1] is given as “did not show any activity”. Moreover, the “cytotoxic activity against HepG2 cells (in words)” value in data set [2] is recorded as “only active against HepG2 cells”. The compound also registered an IC50 in data set [2] (72 h) of 9.57 ± 1.14 µM.
As for `CC[C@H](C)[C@H](NC(=O)[C@@H](NC(=O)[C@H](Cc1ccccc1)NC(=O)c1cccc(C(=O)N[C@@H](Cc2ccccc2)C(=O)N[C@H](C(=O)N[C@H](C(=O)O)[C@@H](C)CC)[C@@H](C)CC)n1)[C@@H](C)CC)C(=O)O` [3c, N^α-Dipicolinoyl-bis[L-Phe-L-ILe-L-ILe-carboxylic acid]], the IC50 in data set [1] was found to be 22.9 ± 0.992 µM; in data set [2] (72 h), 17 ± 1.16 µM.
For `CC[C@H](C)[C@@H]1NC(=O)[C@H](Cc2ccccc2)NC(=O)c2cccc(n2)C(=O)N[C@@H](Cc2ccccc2)C(=O)N[C@@H]([C@@H](C)CC)C(=O)N[C@@H]([C@@H](C)CC)C(=O)N[C@H](C(=O)OC)CCCCNC(=O)[C@H]([C@@H](C)CC)NC1=O` [4c, Cyclo-(N^α-dipicolinoyl)-bis-[(L-Phe-L-ILe-L-Ile)-L-Lysmethyl ester]] the same measures were 19.6 ± 1.03 µM and 9.63 ± 0.932 µM.
The like results for `CC[C@H](C)[C@H](NC(=O)[C@@H](NC(=O)c1cccc(C(=O)N[C@H](C(=O)N[C@H](C(=O)O)[C@@H](C)CC)[C@@H](C)CC)n1)[C@@H](C)CC)C(=O)O` [1a] were, in that order, 15.3 ± 0.672 µM and 6.62 ± 0.353 µM.
For `CC[C@H](C)[C@H](NC(=O)[C@H](Cc1ccccc1)NC(=O)c1cccc(C(=O)N[C@@H](Cc2ccccc2)C(=O)N[C@H](C(=O)N[C@H](C(=O)OC)[C@@H](C)CC)[C@@H](C)CC)n1)C(=O)N[C@H](C(=O)OC)[C@@H](C)CC` [2c, N^α-Dipicolinoyl-bis[L-Phe-L-ILe-L-ILe-methyl ester]] the same measures were 24.9 ± 1.08 µM and 19.3 ± 1.06 µM.
As for `CC[C@H](C)[C@H](NC(=O)c1cccc(C(=O)N[C@H](C(=O)N[C@H](C(=O)N[C@@H](Cc2ccccc2)C(=O)O)[C@@H](C)CC)[C@@H](C)CC)n1)C(=O)N[C@H](C(=O)N[C@@H](Cc1ccccc1)C(=O)O)[C@@H](C)CC` [3a, N^α-Dipicolinoyl-bis[L-ILe-L-ILe-L-Phe-carboxylic acid]], the IC50 in data set [1] was 10.3 ± 0.546 µM; in data set [2] (72 h) it was 8.06 ± 0.863 µM.
As for `CC[C@H](C)[C@H](NC(=O)c1cccc(C(=O)N[C@H](C(=O)N[C@H](C(=O)N[C@@H](Cc2ccccc2)C(=O)OC)[C@@H](C)CC)[C@@H](C)CC)n1)C(=O)N[C@H](C(=O)N[C@@H](Cc1ccccc1)C(=O)OC)[C@@H](C)CC` [2a, N^α-Dipicolinoyl-bis[L-ILe-L-ILe-L-Phe-methyl ester]], the figures for the IC50 in data set [1] and in data set [2] (72 h) were > 100 µM and 17.5 ± 0.876 µM, respectively.
For `CC[C@H](C)[C@@H]1NC(=O)c2cccc(n2)C(=O)N[C@@H]([C@@H](C)CC)C(=O)N[C@@H]([C@@H](C)CC)C(=O)N[C@@H](Cc2ccccc2)C(=O)N[C@H](C(=O)OC)CCCCNC(=O)[C@H](Cc2ccccc2)NC(=O)[C@H]([C@@H](C)CC)NC1=O` [4a, Cyclo-(N^α-dipicolinoyl)-bis-[(L-ILe-L-ILe-L-Phe)-L-Lysmethyl ester]] the same measures were 9.3 ± 0.536 µM and 7.31 ± 0.595 µM.
In data set [2] (72 h), `CC[C@H](C)[C@@H]1NC(=O)c2cccc(n2)C(=O)N[C@@H]([C@@H](C)CC)C(=O)N[C@@H](Cc2ccccc2)C(=O)N[C@@H]([C@@H](C)CC)C(=O)N[C@H](C(=O)O)CCCCNC(=O)[C@H]([C@@H](C)CC)NC(=O)[C@H](Cc2ccccc2)NC1=O` [5b, Cyclo-(N^α-dipicolinoyl)-bis-[(L-ILe-L-Phe-L-Ile)-L-Lyscarboxylic acid]] showed an IC50 of 7.09 ± 0.784 µM.
In the case of `CC[C@H](C)[C@H](NC(=O)c1cccc(C(=O)N[C@H](C(=O)N[C@@H](Cc2ccccc2)C(=O)O)[C@@H](C)CC)n1)C(=O)N[C@@H](Cc1ccccc1)C(=O)O` [1b], the values for the IC50 in data set [1] and in data set [2] (72 h) were 10.9 ± 0.534 µM and 8.72 ± 0.474 µM, respectively.
The like results for `CC[C@H](C)[C@H](NC(=O)[C@H](Cc1ccccc1)NC(=O)[C@@H](NC(=O)c1cccc(C(=O)N[C@H](C(=O)N[C@@H](Cc2ccccc2)C(=O)N[C@H](C(=O)O)[C@@H](C)CC)[C@@H](C)CC)n1)[C@@H](C)CC)C(=O)O` [3b, N^α-Dipicolinoyl-bis[L-ILe-L-Phe-L-ILe-carboxylic acid]] were, in that order, 9.91 ± 0.491 µM and 9.66 ± 0.792 µM.
The like results for `CC[C@H](C)[C@H](NC(=O)c1cccc(C(=O)N[C@H](C(=O)N[C@@H](Cc2ccccc2)C(=O)N[C@H](C(=O)OC)[C@@H](C)CC)[C@@H](C)CC)n1)C(=O)N[C@@H](Cc1ccccc1)C(=O)N[C@H](C(=O)OC)[C@@H](C)CC` [2b, N^α-Dipicolinoyl-bis[L-ILe-L-L-Phe-ILe-methyl ester]] were, in that order, 20.7 ± 0.974 µM and 18.7 ± 0.988 µM.
With `N.N.[Cl][Pt][Cl]` [Cisplatin, reference compound], the IC50 in data set [2] (read-out: IC50 (compound concentration required to inhibit the cell viability by 50%), HepG-2, hepatocellular cancer cell line HepG2, MTT assay, RPMI 1640, 72 h incubation, absorbance 570 nm, mean ± SD, triplicates) was 10.9 ± 0.962 µM.
In the case of `CC[C@H](C)[C@@H]1NC(=O)c2cccc(n2)C(=O)N[C@@H]([C@@H](C)CC)C(=O)N[C@@H](Cc2ccccc2)C(=O)N[C@@H]([C@@H](C)CC)C(=O)N[C@H](C(=O)OC)CCCCNC(=O)[C@H]([C@@H](C)CC)NC(=O)[C@H](Cc2ccccc2)NC1=O` [4b, Cyclo-(N^α-dipicolinoyl)-bis-[(L-ILe-L-Phe-L-Ile)-L-Lysmethyl ester]], the IC50 in data set [1] amounted to 9.19 ± 0.545 µM; in data set [2] (72 h), 7.17 ± 0.892 µM.
In turn, `CC[C@H](C)[C@@H]1NC(=O)c2cccc(n2)C(=O)N[C@@H]([C@@H](C)CC)C(=O)N[C@@H]([C@@H](C)CC)C(=O)N[C@@H](Cc2ccccc2)C(=O)N[C@H](C(=O)O)CCCCNC(=O)[C@H](Cc2ccccc2)NC(=O)[C@H]([C@@H](C)CC)NC1=O` [5a, Cyclo-(N^α-dipicolinoyl)-bis-[(L-ILe-L-Ile-L-Phe)-L-Lyscarboxylic acid]] displayed an IC50 in data set [2] (72 h) of 7.12 ± 0.79 µM.
For the compound `CC[C@H](C)[C@H](NC(=O)[C@H](Cc1ccccc1)NC(=O)c1cccc(C(=O)N[C@@H](Cc2ccccc2)C(=O)N[C@H](C(=O)O)[C@@H](C)CC)n1)C(=O)O` [1c], the values for the IC50 in data set [1] and in data set [2] (72 h) were 34.9 ± 1.27 µM and 17 ± 0.965 µM, respectively.

For the origin of these results see paper PMC7179445, “Anticancer Activities of Newly Synthesized Chiral Macrocyclic Heptapeptide Candidates” (Molecules, 2020).
